# Assay: Solubility in DMSO or in DMSO and water
# Conditions: isolates
compound,measurement,value
"CCCCCc1cc(O)c2c(c1)OC(C)(C)[C@@H]1CCC(C)=C[C@@H]21 [THC, tetrahydrocannabinol]",solubility in DMSO,soluble in DMSO

# Reference: patent publication US11839593B2, “Penetrating topical pain relief compositions and methods of use” (Tech Swerve LLC, priority 2019, dated 2023)
